Source: patent publication US5250537A, “5,6,7,8,9,10-hexahydro-7 ,10-iminocyclohept[b]indole,-6,7,8,9,10-hexahydro-7,11-imino-5H-cyclooct[ b]indole and substituted derivatives” (Scios Nova Inc., priority 1992, dated 1993)
Like-named read-outs stand apart in the source and are kept apart here.

What was measured:
[1] = target: T1, dopamine (D-2) receptors (Rattus norvegicus, UniProt P61169); assay: In Vitro Dopamine (D-2) Receptor Binding, [3H]sulpiride; conditions: read-out: Dopamine D-2 [3H]sulpiride Ki
T1 construct: the corpus striatum was dissected and homogenized; from tissue; host or cells: rat corpus striatum membranes
Description: On the day of assay, rats were sacrificed by decapitation, the corpus striatum was dissected and homogenized in 20 volumes of ice-cold 50 mM Tris HCl (pH 7.5, 25° C.). The homogenate was centrifuged (4° C.) at 48,000×g for 10 minutes and the resulting pellet was resuspended in 20 volumes of fresh buffer and recentrifuged. […] A portion of the suspension (800 μL) was added in triplicate to tubes containing 3 nM [^3 H]sulpiride and the test compound. The final assay volume was 1 mL; haloperidol (10 μM) was used to determine non-specific binding. Following a 60 minute incubation at 25° C., the reactions were terminated by rapid filtration over Whatman GF/B filters which had been pretreated in a solution of 0.3% (w/v) of aqueous polyethylenimine. Filters were washed three times using 5 mL of ice-cold buffer and processed using standard procedures to determine radioactivity. IC50 values were obtained from concentration-response curves in which a number of concentrations of test compound were examined. Ki values were determined using the Cheng-Prusoff equation.

[2] = target: T2, serotonin 5-HT2 receptors (Rattus norvegicus, UniProt P14842); assay: In Vitro Serotonin (5-HT2) Receptor Binding, [3H]ketanserin; conditions: for Ki: rat cortical membranes, 1 nM [3H]ketanserin
T2 construct: Rat cortical synaptosomal membranes were prepared on the day of assay; from tissue; host or cells: rat frontal cortex synaptosomal membranes
Description: The potency of compounds to inhibit the specific binding of [^3 H]ketanserin (84.2 Ci/mM) to serotonin 5-HT2 receptors was determined as detailed previously [J. E. Leysen, C. J. E. Niemegers, J. M. Van Neuten and P. M. Laduron, Mol. Pharmacol., 21, 301-314 (1982)]. Rat cortical synaptosomal membranes were prepared on the day of assay. Animals were sacrified by decapitation, the frontal cortex was removed and homogenized in 10 volumes (w/v) of ice-cold 0.32M sucrose using a motor driven teflon pestle fitted to a glass tube. The synaptosomal pellet was suspended in 50 mM Tris HCl (pH 7.6 at 25° C.) to a concentration of 7.5 mg original wet weight/mL. For the binding reaction, 400 μL of this tissue suspension was added to polypropylene tubes containing 50 mM Tris HCl and [^3 H]ketanserin (final concentration of 1 nM) in a final assay volume of 0.5 mL. Following a 15 minute incubation at 37° C., the binding reaction was terminated by rapid vacuum filtration over Whatman GF/B filters (presoaked in 0.1% PEI) followed by 3×4 mL washes with ice cold 50 mM Tris HCl. Nonspecific binding was assessed in the presence of 10 μM methysergide. All incubations were performed in triplicate. IC50 values were determined using log logit analysis.

[3] = target: T3, sigma receptor ([3H](+)-3-PPP site) (Cavia porcellus, UniProt Q60492); assay: In Vitro Sigma Receptor Binding, [3H](+)-3-PPP; design: species or system guinea pig; conditions: guinea pig brain; 45 minutes at 25° C.; read-out: Sigma [3H](+)-3-PPP binding IC50
T3 construct: frozen guinea pig brains; tissue PelFreez Biologicals, Rogers, AK; host or cells: guinea pig brain membranes
Description: (§1) For both assays frozen guinea pig brains (PelFreez Biologicals, Rogers, AK) were thawed and homogenized in 10 volumes (w/v) of ice cold 0.32M sucrose using 10 strokes of a motor-drivenglass-fitted teflon pestle adjusted to 600 rpm. The homogenate was centrifuged (4° C.) at 900× g for 10 minutes and the resultant supernatant collected and centrifuged at 22,000×g for 20 minutes. The pellet obtained from the centrifugation was resuspended in 10 volumes of 50 mM Tris HCl (pH 7.4, 25° C.) and incubated for 30 minutes at 37° C. Following the preincubation, the homogenate was centrifuted at 22,000×g for 20 minutes and the final pellet was resuspended in buffer to a protein concentration of 0.5-1.0 mg/mL for use in the assay.
(§2) Binding reactions were initiated by the addition of tissue (800 μL) to tubes containing assay buffer, the radioligand (final concentration 1-3 nM) and the compound of interest. Haloperidol (10 μM) and (+)-3-PPP (10 μM) were used to determine the levels of […] [^3 H]DTG and [^3 H](+)PPP binding, respectively. Final assay volume was 1 mL. Reactions were allowed to proceed for 45 minutes at 25° C. and terminated by rapid filtration over Whatman GF/B filters which were washed 3 times with 5 mL of cold buffer. Radioactivity trapped on the filters was determined using routine methods. […] All assays were performed using triplicate determinations. For comparison purposes, IC50 values are reported rather than Ki values.

[4] = target: sigma receptor ([3H]DTG site); assay: In Vitro Sigma Receptor Binding, [3H]DTG; conditions: guinea pig brain; 45 minutes at 25° C.
Description: as §1, §2

[5] = rat corpus striatum, 3 nM [3H]sulpiride
[6] = read-out: Serotonin 5-HT2 [3H]ketanserin, % @ 1 μM
[7] = read-out: Serotonin 5-HT2 [3H]ketanserin, value @ 1 μM

T1 sequence (P61169 whole entry): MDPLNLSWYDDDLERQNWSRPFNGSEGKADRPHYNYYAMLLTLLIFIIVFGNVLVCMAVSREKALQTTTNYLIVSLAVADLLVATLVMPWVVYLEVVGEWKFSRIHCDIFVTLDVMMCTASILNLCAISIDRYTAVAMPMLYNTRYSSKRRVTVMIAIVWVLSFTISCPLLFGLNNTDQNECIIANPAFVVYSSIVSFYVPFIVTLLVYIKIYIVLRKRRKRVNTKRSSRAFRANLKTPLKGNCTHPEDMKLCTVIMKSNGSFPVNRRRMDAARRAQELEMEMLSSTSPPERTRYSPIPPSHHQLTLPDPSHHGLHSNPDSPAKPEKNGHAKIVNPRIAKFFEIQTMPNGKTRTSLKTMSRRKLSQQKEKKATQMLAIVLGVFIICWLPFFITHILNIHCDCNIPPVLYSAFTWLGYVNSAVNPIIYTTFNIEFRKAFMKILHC
T2 sequence (P14842 whole entry): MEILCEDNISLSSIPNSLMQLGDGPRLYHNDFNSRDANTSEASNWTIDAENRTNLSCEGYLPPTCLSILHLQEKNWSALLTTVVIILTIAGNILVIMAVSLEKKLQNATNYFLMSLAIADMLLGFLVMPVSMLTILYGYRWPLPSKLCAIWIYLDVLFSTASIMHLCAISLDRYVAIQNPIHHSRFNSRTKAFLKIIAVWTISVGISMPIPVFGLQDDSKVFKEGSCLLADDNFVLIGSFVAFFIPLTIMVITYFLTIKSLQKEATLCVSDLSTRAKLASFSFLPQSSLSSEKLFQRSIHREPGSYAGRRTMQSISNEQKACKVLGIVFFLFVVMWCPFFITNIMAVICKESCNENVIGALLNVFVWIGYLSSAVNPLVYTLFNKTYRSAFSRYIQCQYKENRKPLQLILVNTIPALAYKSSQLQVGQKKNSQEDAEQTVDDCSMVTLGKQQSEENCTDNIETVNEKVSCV
T3 sequence (Q60492 whole entry): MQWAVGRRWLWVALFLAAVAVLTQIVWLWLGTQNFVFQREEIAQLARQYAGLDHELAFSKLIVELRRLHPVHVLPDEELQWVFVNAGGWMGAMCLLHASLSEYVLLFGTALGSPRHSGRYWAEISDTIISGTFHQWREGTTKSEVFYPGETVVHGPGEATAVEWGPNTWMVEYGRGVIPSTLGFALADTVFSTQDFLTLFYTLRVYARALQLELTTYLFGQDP

Row | Compound | Ki [1, 5] [nM] | inhibition at 1 µM [2, 6] [%] | IC50 [3] [nM] | IC50 [4] [nM] | Ki [2] [nM] | inhibition at 1 µM [2, 7] [%] | Ki [1] [nM]
1 | c1ccc(CN2C3CCC2c2c([nH]c4ccccc24)C3)cc1 (stereo not drawn) [1 H H CH2 Ph 2] | 3650 | 22.4 |  |  |  |  | 
2 | C(=C\c1ccccc1)/CN1C2CCC1c1c([nH]c3ccccc13)C2 (stereo not drawn) [1 H H E-CH2 CHCH Ph 2] | 2460 | 36.6 |  |  |  |  | 
3 | O=C(CCCN1C2CCC1c1c(n(-c3ccccc3)c3ccccc13)C2)c1ccc(F)cc1 (stereo not drawn) [2 H Ph (CH2)3 CO 4-FPh 2] | 840 |  | 510 | 528 | 814 |  | 
4 | CN1C2CCC1c1c([nH]c3ccccc13)C2 (stereo not drawn) [3 H H -- CH3 2] | 16700 ± 6000 | 26.4 |  |  |  |  | 
5 | Fc1ccc2[nH]c3c(c2c1)C1CCC(C3)N1CCCc1cccnc1 (stereo not drawn) [4 F H (CH2)3 3-pyridyl 2] | 12200 ± 4700 | 0 |  |  |  |  | 
6 | O=C(CCCN1C2CCC1c1c([nH]c3ccc(F)cc13)C2)c1ccc(F)cc1 (stereo not drawn) [4 F H (CH2)3 CO 4-FPh 2] |  |  | 408 | 55 | 2.07 |  | 
7 | OCCCN1C2CCC1c1c([nH]c3ccc(F)cc13)C2 (stereo not drawn) [4 F H (CH2)3 OH 2] | 37300 |  | 1380 ± 188 | 317 ± 49 |  | 5.6 | 
8 | Fc1ccc2[nH]c3c(c2c1)C1CCC(C3)N1CCCCc1ccccc1 (stereo not drawn) [4 F H (CH2)4 Ph 2] |  |  |  |  | 74 |  | 770
9 | Fc1ccc2[nH]c3c(c2c1)C1CCC(C3)N1 (stereo not drawn) [4 F H -- H 2] | 36600 | 28.2 |  |  |  |  | 
10 | Fc1ccc2[nH]c3c(c2c1)C1CCC(C3)N1Cc1ccccc1I (stereo not drawn) [4 F H CH2 2-IPh 2] | 531000 | 0 |  |  |  |  | 
11 | Fc1ccc2[nH]c3c(c2c1)C1CCC(C3)N1Cc1ccccc1 (stereo not drawn) [4 F H CH2 Ph 2] | 3740 | 3.3 | 908 ± 222 | 86 ± 14 |  |  | 
12 | CC(C)n1c2c(c3ccccc31)C1CCC(C2)N1CCCCc1ccccc1 (stereo not drawn) [5 H 2-Pr (CH2)4 Ph 2] | 2640 ± 270 | 46 | 705 ± 20 | 231 |  |  | 
13 | c1ccc(CCN2C3CCC2c2c(n(Cc4ccccc4)c4ccccc24)C3)cc1 (stereo not drawn) [5 H Bn (CH2)2 Ph 2] | 1620 | 23.3 |  |  |  |  | 
14 | c1ccc(CCCCN2C3CCC2c2c(n(Cc4ccccc4)c4ccccc24)C3)cc1 (stereo not drawn) [5 H Bn (CH2)4 Ph 2] | 1830 |  | 396 ± 92 | 267 ± 87 | 506 |  | 
15 | Cn1c2c(c3ccccc31)C1CCC(C2)N1CCCCc1ccccc1 (stereo not drawn) [5 H CH3 (CH2)4 Ph 2] | 1820 ± 80 | 49 |  |  |  |  | 
16 | O=C1c2ccccc2C(=O)N1CCN1C2CCC1c1c([nH]c3ccccc13)C2 (stereo not drawn) [6 H H (CH2)2 2-phthalimido 2] | 52100 |  |  |  |  | 5.3 | 
17 | Fc1ccc2[nH]c3c(c2c1)C1CCC(C3)N1CCCN1Cc2ccccc2C1 (stereo not drawn) [7 F H (CH2)3 2-isoindolinyl 2] | 1780 ± 630 |  |  |  |  | 72.2 | 
18 | c1ccc2c(c1)CN(CCN1C3CCC1c1c([nH]c4ccccc14)C3)C2 (stereo not drawn) [7 H H (CH2)2 2-isoindolinyl 2] | 2200 ± 180 |  |  |  |  | 55.1 | 
19 | Clc1ccc(OCCN2C3CCC2c2c([nH]c4ccccc24)C3)cc1Cl (stereo not drawn) [7 H H (CH2)2 O-3,4-Cl2 Ph 2] | 650 | 48.9 |  |  |  |  | 
20 | CN(CCc1ccc(Cl)c(Cl)c1)CCN1C2CCC1c1c([nH]c3ccccc13)C2 (stereo not drawn) [9 H H (CH2)2 N(CH3)CH2 CH2-3,4-Cl2 Ph 2] | 2530 ± 160 |  |  |  |  | 34.7 | 
